Source: patent US7786097B2, “Tricyclic compounds, compositions and methods” (Pfizer Inc., priority 2007, dated 2010)
Structures can show the parent of a compound that is named as a salt. Where two headings read alike, the source gives them in different places.

How the values were obtained:
[1] = target: T1, full-length glucocorticoid (GR) protein (Homo sapiens, UniProt P04150); experiment: Glucocorticoid receptor fluorescence polarization ligand binding (GRFP) assay
T1 construct: purchased Invitrogen
T1 sequence (P04150 1-777): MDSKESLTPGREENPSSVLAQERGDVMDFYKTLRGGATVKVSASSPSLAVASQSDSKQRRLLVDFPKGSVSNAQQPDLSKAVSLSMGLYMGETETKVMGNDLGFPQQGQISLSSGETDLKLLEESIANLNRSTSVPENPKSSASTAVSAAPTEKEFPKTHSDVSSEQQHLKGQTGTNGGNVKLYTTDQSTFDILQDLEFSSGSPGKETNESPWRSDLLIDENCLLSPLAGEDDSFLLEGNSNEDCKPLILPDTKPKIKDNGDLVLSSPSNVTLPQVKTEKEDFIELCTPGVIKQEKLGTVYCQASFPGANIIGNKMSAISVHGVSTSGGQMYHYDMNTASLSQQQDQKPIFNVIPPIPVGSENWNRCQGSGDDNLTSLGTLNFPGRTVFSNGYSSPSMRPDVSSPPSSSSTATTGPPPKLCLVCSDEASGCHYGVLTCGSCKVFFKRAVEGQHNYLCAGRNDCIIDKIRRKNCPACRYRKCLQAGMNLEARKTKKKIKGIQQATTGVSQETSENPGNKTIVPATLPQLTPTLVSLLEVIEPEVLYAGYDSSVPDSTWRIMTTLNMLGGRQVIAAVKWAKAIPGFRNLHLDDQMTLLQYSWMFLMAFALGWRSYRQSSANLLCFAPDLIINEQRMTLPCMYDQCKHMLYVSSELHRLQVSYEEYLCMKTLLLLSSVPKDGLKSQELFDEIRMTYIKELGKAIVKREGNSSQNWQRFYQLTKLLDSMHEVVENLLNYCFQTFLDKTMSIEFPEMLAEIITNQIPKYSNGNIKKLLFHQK
Excerpt: GRFP: Glucocorticoid Receptor Binding
The glucocorticoid receptor fluorescence polarization ligand binding (GRFP) assay is used to evaluate direct binding of testing compounds to full-length glucocorticoid (GR) protein. Reagents for this assay are purchased from Invitrogen in a test kit. A fluorescent labeled GR ligand is used as a fluorescent tracer and test compounds compete with the fluorescent tracer for GR binding. The change in polarization value in the presence of test compounds is due to binding of test compounds to (GR) and is used to determine IC50 and relative binding affinity of test compounds for GR.

[2] = test system: Serum osteocalcin; experiment: Serum osteocalcin suppression, 28-day repeat dose mouse model; format: in vivo, Swiss Webster female mice; conditions: mice, oral gavage 28 days, serum osteocalcin
Protocol: (§1) The compounds were weighed and suspended in a vehicle of 0.5% methylcellulose/0.025% tween 20 (Sigma-Aldrich, St. Louis, Mo.). Compound suspensions were homogenized using a Polytron PT-3100 tissue homogenizer to create a very fine suspension and were then sonicated for 10 minutes using a water bath sonicator. Aliquots of each suspension were made for daily dosing at 0.2 ml/dose. Swiss Webster female mice, 10-12 weeks old, 28-29 grams, (Taconic, Germantown, N.Y.) were used in accordance with the guidelines of the Institutional Animal Care and Use Committee and in accordance with NIH guidelines on laboratory animal welfare. Mice were acclimated in the Pfizer animal facility for three to seven days prior to being utilized in a study. […] Each treatment group contained 5-10 mice. To establish a dosing regimen for the studies, a pilot pharmacodynamic time course experiment was conducted to quantify TNFα repression after a single ED80 dose.
(§2) Body weights were measured on the first and last day of each experiment. Blood samples were obtained after three weeks of dosing for a steady-state pharmacokinetic (PK) analysis. To assess compound effects on LPS-induced TNFα, all mice received an intraperitoneal injection of LPS (Salmonella typhosa, L-7895; Sigma-Aldrich, St. Louis) 2.5 hr after the last dose on day 28. Mice were sacrificed 90 minutes after LPS administration. Serum samples were quantified for osteocalcin and TNFα using the multiplex assays (Linco Research, Inc, St. Charles, Mo.; Luminex 100, Austin, Tex.). Samples were diluted 1:20 and the assay was run according to manufacturer's instructions. The osteocalcin standard was purchased separately (Biomedical Technologies Inc., Stoughton, Mass.). Mice were fasted for 4 hours before serum was collected for TNFα, and osteocalcin levels. For each experiment, outliers were detected by calculating the number of standard deviations from the mean of the group. If the value being examined was more than 2.5 standard deviations from the mean, it was excluded from the rest of the calculations.
(§3) The individual mouse percent inhibition values were fit to a four-parameter logistic model using the dose mean for each group.
(§4) ED50 and ED80 values were obtained for the various endpoints using a four-parameter logistic fit. For compounds which were tested multiple times, ED50 and ED80 values were obtained using four-parameter logistic fits of the combined data from multiple experiments.

[3] = test system: Mouse Collagen-Induced Arthritis (mCIA); experiment: Therapeutic mouse collagen-induced arthritis (mCIA) model; format: in vivo, Male DBA/J mice; conditions: Mus musculus, mice, dosing day 34 through day 49; for ED80: read-out: Therapeutic mCIA (ED80 dose)
Excerpt: Mouse Collagen-induced arthritis is a commonly used chronic, preclinical model of rheumatoid arthritis in which joint swelling and bone destruction occur following immunization with type II collagen. Reduction of disease incidence and severity has been shown previously to be predictive of disease-modification and signs and symptoms mitigation, respectively, in a clinical setting.
In the therapeutic mCIA model, induction of disease incidence and severity was synchronized via LPS stimulation. Male DBA/J mice were immunized with 100 ug of bovine type II collagen (bCII) on day 0. All mice received an intraperitoneal injection of 20 μg of LPS on day 28 and disease was allowed to develop through day 34. At day 34, all mice had disease (incidence=100%) with an average severity score of seven. Dosing of compounds was initiated in the therapeutic mode on day 34 and continued through day 49. Different treatments were compared by measuring the decrease in incidence (i.e., resolution of disease) and the decrease in severity of paw swelling over time.

[4] = test system: LPS-induced serum TNFα; experiment: LPS-induced serum TNFα suppression, 28-day repeat dose mouse model; format: in vivo, Swiss Webster female mice; conditions: Mus musculus, 672 h, mice, oral gavage 28 days
Protocol: as §1, §2, §3, §4

[5] = test system: IL-6 levels in Human A549 lung epithelial cells; experiment: IL-1β-stimulated IL-6 in A549 cells; format: cell-based; conditions: additional results (footnote a)
Protocol: IL-6 IC50 and % Inhibition
Human A549 lung epithelial cells (American Type Culture Collection, Rockville, Md.) were cultured in Kaighn's F-12K medium with penicillin-streptomycin (10 U/mL) and 10% heat-inactivated fetal bovine serum (all from Invitrogen, Grand Island, N.Y.). A549 cells were plated at a density of 30,000 cells/well in 96-well plates and incubated overnight at 37° C. and with 5% CO2. The cells were serum-starved by replacing the growth medium with serum-free Kaighn's F-12K medium with penicillin-streptomycin (10 U/mL) and, again, incubating overnight at 37° C. and with 5% CO2. On the third day, the medium was replaced with fresh serum-free medium and the cells were incubated with or without compound (vehicle was DMSO at 0.1% maximum concentration) for approximately 1 hour and then stimulated with 1 ng/mL recombinant human IL-1β (R&D Systems, Minneapolis, Minn.) for 20 hours at 37° C. and with 5% CO2. Cell supernatants were collected for determination of IL-6 levels using MSD (Meso Scale Discovery, Gaithersburg, Md.) 96-well Single Spot plates as per the manufacturer's instructions. Plates were read with an MSD Sector Imager 6000. […] Vehicle was used to define the 0% inhibition control. Percent inhibition for each compound concentration, relative to these controls, was calculated using Excel (Microsoft, Redmond, Wash.). […]

[6] = Solubility and intrinsic dissolution; format: physicochemical; conditions: compared with Example 1

IC50 ([1]; additional results (footnote a))	SMILES	IC50 [1]	Osteocalcin Suppression (ED80 dose) [2]	ED80 [3]	ED80 [4]	ED50 ([3]; read-out: Therapeutic mCIA (ED50 dose))	IL-6 % Inhibition [5]	solubility and intrinsic dissolution [6]
	Cc1ncccc1CNC(=O)c1ccc2c(c1)CC[C@@H]1C[C@@](O)(CCC(F)(F)F)CC[C@@]21Cc1ccccc1 [Comparator A, (4βS,7S,8αR)-4β-benzyl-7-hydroxy-N-((2-methylpyridin-3-yl)methyl)-7-(3,3,3-trifluoropropyl)-4β,5,6,7,8,8α,9,10-octahydrophenanthrene-2-carboxamide]	7.1 nM						
	Cc1cnc(NC(=O)c2ccc3c(c2)CC[C@@H]2C[C@@](O)(C(F)(F)F)CC[C@@]32Cc2ccccc2)c(C)n1 [Comparator B, (4βS,7R,8αR)-4β-benzyl-N-(3,5-dimethylpyrazin-2-yl)-7-hydroxy-7-(trifluoromethyl)-4β,5,6,7,8,8α,9,10-octahydrophenanthrene-2-carboxamide]	0.35 nM	>10 mg/kg	> 10 mg/kg	2.91 mg/kg			
	Cc1ncccc1NC(=O)c1ccc2c(c1)CC[C@@H]1C[C@@](O)(CCC(F)(F)F)CC[C@@]21Cc1ccccc1 [Comparator C, (4βS,7S,8αR)-4β-benzyl-7-hydroxy-N-(2-methylpyridin-3-yl)-7-(3,3,3-trifluoropropyl)-4β,5,6,7,8,8α,9,10-octahydrophenanthrene-2-carboxamide]	1.22 nM		> 10 mg/kg	1.33 mg/kg			
	Cc1ccncc1NC(=O)c1ccc2c(c1)CC[C@@H]1C[C@@](O)(C(F)(F)F)CC[C@@]21Cc1ccccc1 [Comparator D, (4βS,7R,8αR)-4β-benzyl-7-hydroxy-N-(4-methylpyridin-3-yl)-7-(trifluoromethyl)-4β,5,5,7,8,8α,9,10-octahydrophenanthrene-2-carboxamide]	2.06 nM			> 20 mg/kg			
	Cc1ncccc1NC(=O)c1ccc2c(c1)C(=O)C[C@@H]1C[C@@](O)(C(F)(F)F)CC[C@@]21Cc1ccccc1 [Comparator E]	1.18 nM	1.71 mg/kg	2.6 mg/kg	1.18 mg/kg			
	Cc1ncccc1NC(=O)c1ccc2c(c1)[C@H](O)C[C@@H]1C[C@@](O)(C(F)(F)F)CC[C@@]21Cc1ccccc1 [Comparator F, (4βS,7R,8αR,10R)-4β-benzyl-7,10-dihydroxy-N-(2-methylpyridin-3-yl)-7-(trifluoromethyl)-4β,5,6,7,8,8α,9,10-octahydrophenanthrene-2-carboxamide]	1.9 nM	>10 mg/kg	> 10 mg/kg	5.67 mg/kg			
	Cc1c(NC(=O)c2ccc3c(c2)CC[C@@H]2C[C@@](O)(C(F)(F)F)CC[C@@]32Cc2ccccc2)ccc[n+]1[O-] [Comparator G]		7.27 mg/kg	3 mg/kg	3.33 mg/kg	0.6 mg/kg		
	Cc1ncccc1NC(=O)c1ccc2c(c1)CC[C@@H]1C[C@@](O)(C(F)F)CC[C@@]21Cc1ccccc1 [Comparator H, (4βS,7R,8αR)-4-benzyl-7-(difluoromethyl)-7-hydroxy-N-(2-methylpyridin-3-yl)-4β,5,6,7,8,8α,9,10 octahydrophenanthrene-2-carboxamide]	8.03 nM			0.72 mg/kg			
	Cc1ncccc1NC(=O)c1ccc2c(c1)C=C[C@@H]1C[C@@](O)(C(F)(F)F)CC[C@@]21Cc1ccccc1 [Comparator I, (4βS,7R,8αR)-4β-benzyl-7-hydroxy-N-(2-methylpyridin-3-yl)-7-(trifluoromethyl)-4β,5,6,7,8,8α-hexahydrophenanthrene-2-carboxamide]	9.12 nM	>20 mg/kg	> 20 mg/kg	5.45 mg/kg			
	Cc1ncc(NC(=O)c2ccc3c(c2)CC[C@@H]2C[C@@](O)(CCC(F)(F)F)CC[C@@]32Cc2ccccc2)c(C)n1 [Comparator J]	4.58 nM		> 20 mg/kg	0.79 mg/kg			
	Cc1ncccc1NC(=O)c1ccc2c(c1)CC[C@@H]1C[C@@](OC(=O)OCC(C)C)(C(F)(F)F)CC[C@@]21Cc1ccccc1 [Comparator K, (2R,4αS,10αR)-4-benzyl-7-((2-methylpyridin-3-yl)carbamoyl)-2-(trifluoromethyl)-1,2,3,4,4α,9,10,10α-octahydrophenanthren-2-yl isobutyl carbonate]	895 nM						
	Cc1ncccc1NC(=O)c1ccc2c(c1)CC[C@@H]1C[C@@](O)(C(F)(F)F)CC[C@@]21Cc1ccccc1 [Example 1 HCL salt]	1.31 nM						
42 nM	Cc1ncccc1NC(=O)c1ccc2c(c1)CC[C@@H]1C[C@@](OP(=O)(O)O)(C(F)(F)F)CC[C@@]21Cc1ccccc1 [Example 2, (2R,4αS,10αR)-4α-benzyl-7-((2-methylpyridin-3-yl)carbamoyl)-2-(trifluoromethyl)-1,2,3,4,4α,9,10,10α-octahydrophenanthren-2-yl dihydrogen phosphate]	79 nM					80%	enhanced solubility and intrinsic dissolution
